Reference: patent US20250144069A1, “BILOBALIDE DERIVATIVE COMPOUNDS FOR TREATING NEUROLOGICAL DISEASES AND CANCERS” (The Chinese University of Hong Kong, priority 2023, published 2025)

Tests used:
[1] = tested on: GAPDH; experiment: GAPDH protein level by Western-blot after RSL3; format: cell-based; details: HMC3, 500 nM RSL3 2 h, then various concentrations of compound 8 h
Experimental: In FIN56 assay, HMC3 (300,000 cells per well on 6-well plate) was pre-treated with FIN56 (2.5, 1.25, 0.625 μM) for 2 h, followed by 8 h treatment of DMSO only (0.1%) or XBB-037 (50 μM). In RSL3 assay, HMC3 (300,000 cells per well on 6-well plate) was pre-treated with RSL3 (750, 500, 250 nM) for 2 h, followed by 4 h or 8 h treatment of DMSO only (0.1%) or XBB-037 (50 μM). […] Antibodies for GPX4 (52455, CST) was used at 1:500 dilution, β-Actin (AC026, ABclonal) was used at 1:400,000 dilution, GAPDH (AC035, ABclonal) was used at 1:3000 dilution. […] Band intensity was normalized by image lab software.
This observation reflected the governing of GPX4 by bilobalide analogue XBB-037, which played an important role in the mechanism against RSL3-induced ferroptosis.

[2] = tested on: HT22 mouse hippocampal cell line; experiment: RSL3-induced ferroptosis model, cell viability (CCK-8)
Experimental: In this example, the anti-ferroptotic properties of the BB analogues described in preceding examples were evaluated by a RSL3-induced ferroptosis model. […] To evaluate the anti-ferroptosis activity of BB analogues, we developed a phenotypic screening based on RSL3-induced ferroptosis model on HT22 mouse hippocampal cell line, HMC3 microglial cell line and BV-2 murine microglial cell line which were co-treated or pre-treated with RSL3 and BB analogues for 2-24 h, and the cell viability was subsequently measured.
HMC3 cell line was maintained in Minimum Essential Medium (MEM, Gibco) supplemented with 1× non-essential amino acid (Gibco), 1 mM sodium pyruvate (Gibco), 10% fetal bovine serum (FBS) (Gibco) and 1% penicillin/streptomycin (Gibco). BV-2 cell line was maintained in Roswell Park Memorial Institute (RPMI) 1640 medium (Gibco) supplemented with 10% FBS and 1% penicillin/streptomycin, and HT22 cell line was maintained in Dulbecco's Modified Eagle's Medium (DMEM) (Gibco) supplemented with 10% FBS and 1% penicillin/streptomycin. All cells were incubated at 37° C. in a humidified atmosphere under 5% CO2.
For phenotypic screening of bilobalide (BB) analogues, 5,000 cells per well (100 uL volume) of HT22, HMC3 or BV-2 cells were placed in 96-well plate and allowed to adhere for 22 h. After which, cells were pre-treated with 200 nM (on HT22, HMC3) or 500 nM (on BV-2) of RSL3 (Bidepharm) for 2 h respectively. Medium was then replaced by 50 μM BB analogues and followed by 22 h incubation subsequently. Cell viability was measured using cell counting kit-8 (CCK-8) (MCE). For dose-response of BB analogues, RSL3, HT22 and HMC3 cells (seeded on 96-well plates at 5,000 cells per well) were treated with multiple doses of RSL3 for 2 h. […] Cell viability was measured after 22 h treatment by CCK-8. […] Cell viability was measured by CCK-8 using CLARIOstar monochromator multimode plate reader under 450 nm wavelength.
In this example, the cells were pre-treated with RSL3 (200 nM for HT22 and HMC3, 500 nM for BV-2) for two hours, followed by bilobalide analogues treatment (50 PM) for 22 hours. Cell viability was measured using cell counting kit-8 (CCK-8); n=5 technical replicates. […] Such effect was further investigated by treating the cell lines with various doses of RSL3.

[3] = tested on: BV-2 murine microglial cell line; experiment: as above; details: BV-2, RSL3 500 nM 2 h, then 50 μM compound 22 h
Experimental: In this example, the anti-ferroptotic properties of the BB analogues described in preceding examples were evaluated by a RSL3-induced ferroptosis model. […] To evaluate the anti-ferroptosis activity of BB analogues, we developed a phenotypic screening based on RSL3-induced ferroptosis model on HT22 mouse hippocampal cell line, HMC3 microglial cell line and BV-2 murine microglial cell line which were co-treated or pre-treated with RSL3 and BB analogues for 2-24 h, and the cell viability was subsequently measured. […]
For phenotypic screening of bilobalide (BB) analogues, 5,000 cells per well (100 uL volume) of HT22, HMC3 or BV-2 cells were placed in 96-well plate and allowed to adhere for 22 h. […] Cell viability was measured using cell counting kit-8 (CCK-8) (MCE). […] Cell viability was measured after 22 h treatment by CCK-8. […] Cell viability was measured by CCK-8 using CLARIOstar monochromator multimode plate reader under 450 nm wavelength.
In this example, the cells were pre-treated with RSL3 (200 nM for HT22 and HMC3, 500 nM for BV-2) for two hours, followed by bilobalide analogues treatment (50 PM) for 22 hours. Cell viability was measured using cell counting kit-8 (CCK-8); n=5 technical replicates. […]

[4] = tested on: A549 cells; experiment: Single-dose CCK-8 cell viability screening (adherent cells); format: cell-based, human; details: Homo sapiens, A549, 48 h, A549 cells, 50 uM, 48 h, CCK-8; read-out: % Viability (50 uM, 48 h) A549
[5] = as above; format: cell-based, human; details: Homo sapiens, A549, 48 h, average of A549 and Jurkat % viability, 50 uM, 48 h
[6] = tested on: HMC3 cells; experiment: Cytotoxicity, cell viability of HMC3 cells; format: cell-based; details: 24 h treatment
Source text: Now referring to FIG. 11A, a chart showing the cell viability (%) of HMC3 cells treated with SXQ087-1, XBB-037 or bilobalide.

[7] = tested on: HMC3 microglial cell line; experiment: RSL3-induced ferroptosis model, cell viability (CCK-8); format: cell-based
[8] = tested on: Jurkat cells; experiment: Single-dose CCK-8 cell viability screening (suspension cells); format: cell-based, human; details: Homo sapiens, Jurkat, 48 h, Jurkat cells, 50 uM, CCK-8, read-out: % Viability (50 uM, 48 h) Jurkat
[9] = tested on: HMC3 cells; format: cell-based; details: then 50 μM compound 22 h

## CC(C)(C)[C@]1(O)C[C@@H]2OC(=O)C[C@@]23C(=O)O[C@@H]2N(c4ccc(N)cc4)C(=O)[C@H](OC(=O)c4ccccc4)[C@]213 [XBB-037, 4-(3aS,5aS,8R,9R,10aS)-8-(benzoyloxy)-9-(tert-butyl)-9-hydroxy-2,4,7-trioxohexahydro-4H,9H-furo[3″,2″:2′,3′]cyclopenta[1′,2′:3,4]furo[2,3-b]pyrrol-6(5aH)-yl)benzenaminium chloride]
[1]
  GAPDH level after RSL3: restored the level of GAPDH
[2]; HT22, RSL3 200 nM 2 h, then 50 μM compound 22 h
  inhibition of RSL3-induced ferroptosis (phenotypic screening, cell viability): effectively inhibit ferroptosis
[2]; HT22, multiple doses of RSL3, 50 μM compound
  shift of RSL3 dose-dependent viability curve: diminished RSL3 lethality
[3]
  inhibition of RSL3-induced ferroptosis (phenotypic screening, cell viability): effectively inhibit ferroptosis
[4]
  viability at 50 µM: 95%
[5]
  viability at 50 µM: 90.5%
[6]
  cytotoxicity (cell viability): no significant cytotoxicity
[7]; HMC3, RSL3 200 nM 2 h, then 50 μM compound 22 h
  inhibition of RSL3-induced ferroptosis (phenotypic screening, cell viability): effectively inhibit ferroptosis
[7]; HMC3, multiple doses of RSL3, 50 μM compound
  shift of RSL3 dose-dependent viability curve: diminished RSL3 lethality
[8]
  viability at 50 µM: 86%
[9]; HMC3, FIN56 2 h
  protection against FIN56-induced cell death (cell viability): effectively suppressed FIN56-induced cell death
[9]; HMC3, ML162 2 h
  protection against ML162 lethality (cell viability): alleviated the lethality of ML162
[9]; HMC3, ML210 2 h
  protection against ML210 lethality (cell viability): alleviated the lethality of ML210
[9]; HMC3, erastin 2 h
  protection against erastin-induced lethality (cell viability): suppressed erastin-induced lethality
